Here are results for 1 compound from patent US20260256759A1, “CONCOMITANT ADMINISTRATION OF GLUCOCORTICOID RECEPTOR MODULATOR RELACORILANT AND CYP2C8 SUBSTRATES” (priority 2020, published 2026).

In the series the target is T1, CYP2C8 (Homo sapiens, UniProt P10632).
T1 sequence (P10632 1-490): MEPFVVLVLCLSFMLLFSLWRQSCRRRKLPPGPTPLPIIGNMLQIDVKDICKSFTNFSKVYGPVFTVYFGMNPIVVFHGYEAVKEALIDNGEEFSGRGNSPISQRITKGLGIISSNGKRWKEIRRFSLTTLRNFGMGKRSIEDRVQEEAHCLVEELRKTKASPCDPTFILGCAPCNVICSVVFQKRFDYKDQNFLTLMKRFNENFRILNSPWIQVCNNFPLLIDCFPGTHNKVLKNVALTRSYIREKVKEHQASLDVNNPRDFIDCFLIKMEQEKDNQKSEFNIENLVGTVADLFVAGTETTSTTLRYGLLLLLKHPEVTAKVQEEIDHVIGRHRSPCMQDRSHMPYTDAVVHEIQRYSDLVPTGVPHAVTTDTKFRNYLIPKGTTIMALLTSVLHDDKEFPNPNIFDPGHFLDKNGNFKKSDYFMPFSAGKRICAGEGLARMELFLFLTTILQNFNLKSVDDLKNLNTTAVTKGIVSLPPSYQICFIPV
Nature of the series: Clinical drug-drug interaction study in healthy volunteers (pioglitazone with/without relacorilant). As to conditions: Treatment E (with relacorilant 350 mg) vs Treatment B (alone).

Procedure: An open-label, crossover study was conducted in healthy subjects to determine the effect of relacorilant on the plasma exposure of pioglitazone, a known probe substrate CYP2C8. A single dose of 15 mg of pioglitazone was administered alone and pharmacokinetic (PK) samples were collected before dosing (0 hour) and at 0.5, 1, 1.5, 2, 2.5, 3, 4, 6, 8, 12, 18, 24, 36, 48, 60, and 72 hours post-dose. Relacorilant (350 mg) was then administered once a day for 10 consecutive days. On the following day, a single dose of 15 mg of pioglitazone was administered in combination with relacorilant 350 mg and pharmacokinetic (PK) samples were again collected at pre-dose through 72 hours post-dose at the same timepoints as described above. The plasma concentrations of pioglitazone and its metabolite, pioglitazone M4 were evaluated by validated bioanalytical assays on each dosing occasion of pioglitazone.

On to `CCc1ccc(CCOc2ccc(CC3SC(=O)NC3=O)cc2)nc1` (stereo not drawn) [Pioglitazone, pioglitazone], for which the “AUC0-tz, Ratio of Geometric LSMs (Test/Reference)” value worked out at 74.71%; the “AUCinf, Ratio of Geometric LSMs (Test/Reference)” value stood at 74.83%; the “Cmax, Ratio of Geometric LSMs (Test/Reference)” value came out at 77.82%.
